EC50 data for 29 compounds are collected here from patent US8895578B2, “Carboxamide, sulfonamide and amine compounds and methods for using the same” (Rigel Pharmaceuticals, Inc., priority 2007, dated 2014).

Each structure is given as a SMILES string. Some results are limits rather than exact numbers.

What is called EC50 is the concentration at which the effect is half-maximal. Higher therefore signals lower potency in that assay.

This assay addresses AMPK. The assay can be described thus: AMPK activation, enzyme-linked immunosorbent assay. In kind it is biochemical. On the procedure: Compounds 1-54 were assayed for their ability to activate AMPK using an enzyme-linked immunosorbent assay.
Compounds 55-62 of Table 1 were assayed for their ability to activate AMPK using an enzyme-linked immunosorbent assay.
Compounds 63-66 of Table 1 were assayed for their ability to activate AMPK using an enzyme-linked immunosorbent assay.
Compounds 67-71 of Table 1 were assayed for their ability to activate AMPK using an enzyme-linked immunosorbent assay.
Compound 72 of Table 1 was assayed for its ability to activate AMPK using an enzyme-linked immunosorbent assay.

`N#Cc1cccc(S(=O)(=O)N2CCC(NC(=O)c3ccc4[nH]c5c(c4c3)CN(Cc3ccc(C(F)(F)F)cc3)CC5)CC2)c1` [Compound 29, N-(1-(3-cyanophenyl-sulfonyl)piperidin-4-yl)-2-(4-(trifluoromethyl)benzyl)-2,3,4,5-tetrahydro-1H-pyrido[4,3-b]indole-8-carboxamide] had an EC50 (Table 2, ELISA) of 1 to 5 µM. Same read-out and setting: the result for `O=C(NC1CCN(S(=O)(=O)c2cccc(C(F)(F)F)c2)CC1)c1ccc2[nH]c3c(c2c1)CN(Cc1ccc(C(F)(F)F)cc1)CC3` [Compound 30, 2-(4-(trifluoromethyl)benzyl)-N-(1-(3-(trifluoro-methyl)phenylsulfonyl)piperidin-4-yl)-2,3,4,5-tetrahydro-1H-pyrido [4,3-b]indole-8-carboxamide] reads 1 to 5 µM; that for `O=C(NC1CCN(S(=O)(=O)c2ccc(Cl)cc2)CC1)c1ccc2[nH]c3c(c2c1)CN(Cc1ccc(C(F)(F)F)cc1)CC3` [Compound 32, N-(1-(4-chlorophenyl-sulfonyl)piperidin-4-yl)-2-(4-(trifluoromethyl)benzyl)-2,3,4,5-tetrahydro-1H-pyrido[4,3-b]indole-8-carboxamide], 1 to 5 µM. For the compound `O=C(NC1CCN(C(=O)Nc2ccc(C(F)(F)F)cc2)CC1)c1ccc2[nH]c3c(c2c1)CN(Cc1ccc(C(F)(F)F)cc1)CC3` [Compound 33, 2-(4-(trifluoromethyl)benzyl)-N-(1-(4-(trifluoro-methyl)phenylcarbamoyl)piperidin-4-yl)-2,3,4,5-tetrahydro-1H-pyrido[4,3-b]indole-8-carboxamide], the EC50 (Table 2, ELISA) lay within 1 to 5 µM.

On to `O=C(NC1CCN(S(=O)(=O)c2ccc(F)cc2)CC1)c1ccc2[nH]c3c(c2c1)CN(c1ccc(F)cc1)CC3` [Compound 35, 2-(4-fluorophenyl)-N-(1-(4-fluorophenylsulfonyl)piperidin-4-yl)-2,3,4,5-tetrahydro-1H-pyrido[4,3-b] indole-8-carboxamide], for which, under “Table 2, ELISA”, the EC50 lay within 10 to 50 µM. Still for that read-out and setting: to `O=C(NC1CCN(Cc2cccnc2)CC1)c1ccc2[nH]c3c(c2c1)CN(c1ccc(F)cc1)CC3` [Compound 36, 2-(4-fluorophenyl)-N-(1-(pyridin-3-ylmethyl)piperidin-4-yl)-2,3,4,5-tetrahydro-1H-pyrido[4,3-b]indole-8-carboxamide] belongs > 100 µM; to `O=C(NC1CCN(Cc2ccc(C(F)(F)F)cc2)CC1)c1ccc2[nH]c3c(c2c1)CN(c1ccc(F)cc1)CC3` [Compound 37, 2-(4-fluorophenyl)-N-(1-(4-(trifluoromethyl)benzyl)piperidin-4-yl)-2,3,4,5-tetrahydro-1H-pyrido[4,3-b] indole-8-carboxamide], 5 to 10 µM; to `CC(C)(C)OC(=O)N1CCC(NC(=O)c2ccc3[nH]c4c(c3c2)CN(c2ccc(F)cc2)CC4)CC1` [Compound 38, tert-butyl 4-(2-(4-fluorophenyl)-2,3,4,5-tetrahydro-1H-pyrido[4,3-b]indole-8-carboxamido) piperidine-1-carboxylate], 10 to 50 µM. With `O=C(NC1CCN(C(=O)c2ccc(F)cc2)CC1)c1ccc2[nH]c3c(c2c1)CN(c1ccc(F)cc1)CC3` [Compound 39, N-(1-(4-fluorobenzoyl)piperidin-4-yl)-2-(4-fluorophenyl)-2,3,4,5-tetrahydro-1H-pyrido [4,3-b]indole-8-carboxamide], under “Table 2, ELISA”, the EC50 lay within 10 to 50 µM.

Take `O=C(NC1CCN(C(=O)c2cccnc2)CC1)c1ccc2[nH]c3c(c2c1)CN(c1ccc(F)cc1)CC3` [Compound 40, 2-(4-fluorophenyl)-N-(1-nicotinoylpiperidin-4-yl)-2,3,4,5-tetrahydro-1H-pyrido[4,3-b]indole-8-carboxamide]: the EC50 (Table 2, ELISA) was > 100 µM. Still for that read-out and setting: the result for `O=C(NC1CCN(C(=O)c2ccc(C(F)(F)F)cc2)CC1)c1ccc2[nH]c3c(c2c1)CN(c1ccc(F)cc1)CC3` [Compound 41, 2-(4-fluorophenyl)-N-(1-(4-(trifluoromethyl)benzoyl)piperidin-4-yl)-2,3,4,5-tetrahydro-1H-pyrido[4,3-b] indole-8-carboxamide] reads 10 to 50 µM; that for `CC(C)(C)OC(=O)N1CCC(NC(=O)c2ccc3[nH]c4c(c3c2)CN(Cc2ccc(C(N)=O)cc2)CC4)CC1` [Compound 43, tert-butyl 4-(2-(4-carbamoyl-benzyl)-2,3,4,5-tetrahydro-1H-pyrido[4,3-b]indole-8-carboxamido)piperidine-1-carboxylate], > 100 µM. On the same count and under the same terms, the result for `N#Cc1ccc(CN2CCC(NC(=O)c3ccc4[nH]c5c(c4c3)CN(Cc3ccc(C(N)=O)cc3)CC5)CC2)cc1` [Compound 44, 2-(4-carbamoylbenzyl)-N-(1-(4-cyanobenzyl)piperidin-4-yl)-2,3,4,5-tetrahydro-1H-pyrido[4,3-b]indole-8-carboxamide] reads 10 to 50 µM. Take `NC(=O)c1ccc(CN2CCc3[nH]c4ccc(C(=O)NC5CCN(Cc6ccncc6)CC5)cc4c3C2)cc1` [Compound 45, 2-(4-carbamoylbenzyl)-N-(1-(pyridin-4-ylmethyl)piperidin-4-yl)-2,3,4,5-tetrahydro-1H-pyrido [4,3-b]indole-8-carboxamide]: the EC50 (Table 2, ELISA) is > 100 µM. On the same count and under the same terms, the result for `NC(=O)c1ccc(CN2CCc3[nH]c4ccc(C(=O)NC5CCN(C(=O)c6ccncc6)CC5)cc4c3C2)cc1` [Compound 46, 2-(4-carbamoylbenzyl)-N-(1-isonicotinoylpiperidin-4-yl)-2,3,4,5-tetrahydro-1H-pyrido[4,3-b]indole-8-carboxamide] reads > 100 µM; that for `NC(=O)c1ccc(CN2CCc3[nH]c4ccc(C(=O)NC5CCN(Cc6ccc(C(F)(F)F)cc6)CC5)cc4c3C2)cc1` [Compound 47, 2-(4-carbamoylbenzyl)-N-(1-(4-(trifluoromethyl)benzyl)piperidin-4-yl)-2,3,4,5-tetrahydro-1H-pyrido[4,3-b]indole-8-carboxamide], 10 to 50 µM; that for `NC(=O)c1ccc(CN2CCc3[nH]c4ccc(C(=O)NC5CCN(Cc6ccc(F)cc6)CC5)cc4c3C2)cc1` [Compound 48, 2-(4-carbamoylbenzyl)-N-(1-(4-fluorobenzyl)piperidin-4-yl)-2,3,4,5-tetrahydro-1H-pyrido[4,3-b] indole-8-carboxamide], > 100 µM. For the compound `NC(=O)c1ccc(CN2CCC(NC(=O)c3ccc4[nH]c5c(c4c3)CN(Cc3ccc(C(N)=O)cc3)CC5)CC2)cc1` [Compound 49, 2-(4-carbamoylbenzyl)-N-(1-(4-carbamoylbenzyl)piperidin-4-yl)-2,3,4,5-tetrahydro-1H-pyrido [4,3-b]indole-8-carboxamide], the EC50 (Table 2, ELISA) is > 100 µM.

For `O=C(NC1CCN(Cc2ccncc2)CC1)c1ccc2[nH]c3c(c2c1)CN(Cc1ccc(C(F)(F)F)cc1)CC3` [Compound 50, N-(1-(pyridin-4-ylmethyl)piperidin-4-yl)-2-(4-(trifluoromethyl)benzyl)-2,3,4,5-tetrahydro-1H-pyrido[4,3-b]indole-8-carboxamide], the EC50 (Table 2, ELISA) is < 0.5 µM.

In turn, `O=C(NC1CCN(C(=O)c2ccncc2)CC1)c1ccc2[nH]c3c(c2c1)CN(Cc1ccc(C(F)(F)F)cc1)CC3` [Compound 51, N-(1-isonicotinoyl-piperidin-4-yl)-2-(4-(trifluoromethyl)benzyl)-2,3,4,5-tetrahydro-1H-pyrido[4,3-b]indole-8-carboxamide] showed an EC50 (Table 2, ELISA) of 0.5 to 1 µM. `NC(=O)c1ccc(CN2CCC(NC(=O)c3ccc4[nH]c5c(c4c3)CN(Cc3ccc(C(F)(F)F)cc3)CC5)CC2)cc1` [Compound 52, N-(1-(4-carbamoylbenzyl)piperidin-4-yl)-2-(4-(trifluoromethyl)benzyl)-2,3,4,5-tetrahydro-1H-pyrido[4,3-b]indole-8-carboxamide] gave an EC50 (Table 2, ELISA) of 1 to 5 µM. On the same count and under the same terms, to `Cn1cnc(CN2CCC(NC(=O)c3ccc4[nH]c5c(c4c3)CN(Cc3ccc(C(F)(F)F)cc3)CC5)CC2)c1` [Compound 53, N-(1-((1-methyl-1H-imidazol-4-yl)methyl)piperidin-4-yl)-2-(4-(trifluoromethyl)benzyl)-2,3,4,5-tetrahydro-1H-pyrido[4,3-b]indole-8-carboxamide] belongs 10 to 50 µM; to `O=C(NC1CCN(Cc2cocn2)CC1)c1ccc2[nH]c3c(c2c1)CN(Cc1ccc(C(F)(F)F)cc1)CC3` [Compound 54, N-(1-(oxazol-4-ylmethyl)piperidin-4-yl)-2-(4-(trifluoromethyl)benzyl)-2,3,4,5-tetrahydro-1H-pyrido[4,3-b]indole-8-carboxamide], < 0.5 µM. For `O=C(NC1CCN(Cc2ccccc2)CC1)c1ccc(CN2CCN(Cc3ccccc3)CC2)cc1` [Compound 55, 4-((4-benzylpiperazin-1-yl)methyl)-N-(1-benzyl-piperidin-4-yl)benzamide], the EC50 (Table 3, ELISA) is < 0.1 µM.

`O=C(NC1CCN(Cc2ccccc2)CC1)c1ccc(CN2CCN(CC3CCCCC3)CC2)cc1` [Compound 56, N-(1-benzylpiperidin-4-yl)-4-((4-(cyclohexyl-methyl)piperazin-1-yl)methyl)benzamide] showed an EC50 (Table 3, ELISA) of 1 to 10 µM. On to `O=C(NC1CCN(Cc2ccccc2)CC1)c1ccc(CN2CCN(c3ccc(C(F)(F)F)cn3)CC2)cc1` [Compound 57, N-(1-benzylpiperidin-4-yl)-4-((4-(5-(trifluoro-methyl)pyridin-2-yl)piperazin-1-yl)methyl) benzamide], for which, under “Table 3, ELISA”, the EC50 was < 0.1 µM. In the case of `O=C(NC1CCN(Cc2ccccc2)CC1)c1ccc(CN2CCN(c3ccccn3)CC2)cc1` [Compound 58, N-(1-benzylpiperidin-4-yl)-4-((4-(pyridin-2-yl)piperazin-1-yl)methyl) benzamide], for the setting “Table 3, ELISA”, the EC50 fell in the range of 1 to 10 µM. Same read-out and setting: to `O=C(NC1CCN(Cc2ccncc2)CC1)c1ccc(CN2CCN(Cc3ccccc3)CC2)cc1` [Compound 59, 4-((4-benzylpiperazin-1-yl)methyl)-N-(1-(pyridin-4-ylmethyl)piperidin-4-yl)benzamide] belongs 0.1 to 0.5 µM; to `O=C(NC1CCN(Cc2cccnc2)CC1)c1ccc(CN2CCN(Cc3ccccc3)CC2)cc1` [Compound 60, 4-((4-benzylpiperazin-1-yl)methyl)-N-(1-(pyridin-3-ylmethyl)piperidin-4-yl) benzamide], 0.1 to 0.5 µM.
